Data set [1] concerns Amaranth (Amaranthus viridis). The data set is described as follows: Upland foliar application test, amaranth. Type of data set: in vivo. To be noted: 960 h, foliar application at stage of 2-3 leaves, 50 g ai/a, emulsion, 40th day after spray, read-out: Herbicidal effects Amaranth (Amaranthus viridis). The method, then: (§1) Resin-made 1/1000-are pots were filled with the soil of an upland field. After they were fertilized, cotton and soybean were seeded and 3 cm soil covering was applied. In addition, amaranth, common lambs-quarters, barnyardgrass, green foxtail, large crabgrass and johnsongrass were seeded and 1 cm soil covering was applied. One day later, a wettable powder prepared from a predetermined amount of each test compound in a similar manner to the procedures described in Formulation Example 1 was diluted with water and then sprayed evenly at an application rate equal to 10 l per are onto the surface of the soil by means of a pressure-operated sprayer. The weeds and crops were allowed to grow in a green house and influence to them were observed on the 50th day after the spray. The degree of damages of each test plant and the degree of injury to each crop were determined by measuring fresh weight in each group and indicated by % calculated according to the following formula. [formula]
(§2) Resin-made 1/1000-are pots were filled with the soil of an upland field. After they were fertilized, cotton and soybean were seeded and 3 cm soil covering was applied. Five days later, amaranth, common lambsquarters, barnyardgrass, green foxtail, large crabgrass and johnsongrass were seeded and 1 cm soil covering was applied. They were allowed to grow in a green house. When each plant grew to the stage of 2-3 leaves, an emulsion formulated from a predetermined amount of each test compound in a similar manner to the procedures described in Formulation Example 11 was diluted with water and then sprayed at a predetermined application rate by means of a pressure-operated sprayer. The application rate was controlled at 5 l per are. Influence to the crops and weeds were observed on the 40th day after the spray of the herbicides. The results are shown in Table 4 in which the degree of damages of each test plant and the degree of injury to each crop are shown in a similar manner to Test 2.

Data set [2] concerns Johnsongrass. The data set is described as follows: Upland foliar application test, johnsongrass. Type of data set: in vivo. To be noted: Sorghum halepense, 960 h; foliar application at stage of 2-3 leaves, 50 g ai/a, emulsion, 40th day after spray; read-out: Herbicidal effects Johnsongrass. As to the method: as §2
Data set [3] relates to Cotton (Gossypium indicum). The data set is described as follows: Upland soil application test, crop injury cotton. Type of data set: in vivo. To be noted: soil application one day after seeding, 50 g ai/a, wettable powder, fresh weight on 50th day after spray. As to the method: as §1
Data set [4] has as its system Foxtail (Setaria viridis). The experiment in a line: Upland foliar application test, green foxtail. Type of data set: in vivo. Conditions: 960 h, foliar application at stage of 2-3 leaves, 50 g ai/a, emulsion, 40th day after spray, read-out: Herbicidal effects Foxtail (Setaria viridis). As to the method: as §1, §2
Data set [5] deals with common lambsquarters. The experiment in a line: Upland foliar application test, common lambsquarters. Type of data set: in vivo. To be noted: Chenopodium album, 960 h; foliar application at stage of 2-3 leaves, 50 g ai/a, emulsion, 40th day after spray; read-out: Herbicidal effects Common lambquarters. The method, then:
as §2

Data set [6] deals with Soybean (Glycine max). The data set is described as follows: Upland soil application test, crop injury soybean. The data set is classed as in vivo. To be noted: soil application one day after seeding, 50 g ai/a, wettable powder, fresh weight on 50th day after spray. As to the method:
as §1

Data set [7] concerns ALS (acetolactate syntase) from barnyardgrass seedlings. The experiment in a line: ALS (acetolactate syntase) inhibition test, barnyardgrass enzyme. Type of data set: biochemical. To be noted: 10,000 ppm (0.5 μg/0.5 ml) of compound; 1 hour at 30° C.; absorbance at 525 nm. As to the method: (§3) To determine the selectivity in enzyme level between crops and weeds, an ALS inhibition test was conducted using pea as a typical broadleaf crop and barnyardgrass as a representative gramineous weeds.
(§4) After seeds of pea and barnyardgrass were allowed to germinate at 25° C. for 8-14 days in a dark place, partially-purified suspensions (Suspensions A) of acetolactate syntase were separately obtained from the seedlings in accordance with the procedures described in the literature, Plant Physiology, 75, 827-831. In a test tube, 0.5 mg of one of test compounds was weighed, followed by the addition of 0.15 ml of a 20 mM K2 HPO4 solution and 0.25 ml of a reaction substrate medium which consisted of 40 mM of K2 HPO4, 40 mM of sodium pyruvate, 1 mM of TPP, 1 mM of MgCl2 and 20 μM of FAD so that 0.4 ml of a reaction solution (Solution B) was prepared. Added to 0.4 ml of Solution B was 0.1 ml of Suspension A. After the resultant mixture was shaken for 1 hour in a thermostat water bath controlled at 30° C., 50 μl of 6N sulfuric acid were added to terminate the reaction.
(§5) Next, the test tube with the reaction-terminated liquid mixture contained therein was transferred into a thermostat water bath controlled at 60° C. and was heated for 15 minutes. Thereafter, 0.5 ml of a 0.5% creatine solution and 0.5 ml of a 5% alkaline α-naphthol solution were added, and the resultant mixture was maintained at 60° C. for 15 minutes. As a result, the test solution developed a pink-to-red color. After the above operation, the absorbance of the test solution at 525 nm was measured by a spectrophotometer (Absorbance 1 of Test Compound).
(§6) Further, the absorbance (Absorbance 2 of Blank) of a solution obtained by subjecting a portion of Solution B to the above procedures without addition of any test compound and the absorbance (Absorbance 3 of sulfuric acid) of another solution obtained by subjecting another portion of Solution B to the above procedures which using 50 μl of 6N sulfuric acid as a test compound were also measured.

In data set [8] the test system is Amaranth (Amaranthus viridis). The data set is described as follows: Upland soil application test, amaranth. The data set is classed as in vivo. To be noted: 1200 h, soil application one day after seeding, 50 g ai/a, wettable powder, fresh weight on 50th day after spray, read-out: Herbicidal effects Amaranth (Amaranthus viridis). As to the method:
as §1

In data set [9] the test system is Foxtail (Setaria viridis). The data set is described as follows: Upland soil application test, green foxtail. The data set is classed as in vivo. Conditions: 1200 h, soil application one day after seeding, 50 g ai/a, wettable powder, fresh weight on 50th day after spray, read-out: Herbicidal effects Foxtail (Setaria viridis). The method, then:
as §1

In data set [10] the test system is common lambsquarters. The experiment in a line: Upland soil application test, common lambsquarters. The data set is classed as in vivo. To be noted: Chenopodium album, 1200 h; soil application one day after seeding, 50 g ai/a, wettable powder, fresh weight on 50th day after spray; read-out: Herbicidal effects Common lambquarters. The method, then: as §1
The subject of data set [11] is Soybean (Glycine max). The experiment in a line: Upland foliar application test, crop injury soybean. The data set is classed as in vivo. To be noted: foliar application at stage of 2-3 leaves, 50 g ai/a, emulsion, 40th day after spray. The method, then: as §2
Data set [12] relates to Crabgrass (Digitaria adscendens). The data set is described as follows: Upland soil application test, large crabgrass. Type of data set: in vivo. Conditions: 1200 h, soil application one day after seeding, 50 g ai/a, wettable powder, fresh weight on 50th day after spray, read-out: Herbicidal effects Crabgrass (Digitaria adscendens). The method, then:
as §1

The subject of data set [13] is johnsongrass emerging from rhizome. The experiment in a line: Application test on johnsongrass emerging from rhizome. The data set is classed as in vivo. Conditions: foliar application at stage of 4-5 leaves, application rate of active ingredient 20 (unit not given), emulsion, 50th day after spray. As to the method: as §1
Resin-made 1/1000-are pots were filled with the soil of an upland field. After they were fertilized, rhizome of johnsongrass were transplanted to the pots and 3 cm soil covering was applied. They were allowed to grow in a green house. When each johnsongrass grew to the stage of 4-5 leaves, an emulsion formulated from a predetermined amount of each test compound in a similar manner to the procedures described in Formulation Example 11 was diluted with water and then sprayed at a predetermined application rate by means of a pressure-operated sprayer. The application rate was controlled at 5 l per are. The effect of each compound against the johnsongrass emerging from its rhizome was observed on the 50th day after the spray of the herbicides. The results are shown in Table 5 in which the herbicidal effect against johnsongrass is shown in a similar manner to Test 2.

Data set [14] relates to Barnyardgrass (Echinochloa crusgalli). The experiment in a line: Upland foliar application test, barnyardgrass. To be noted: Echinochloa crus-galli, 960 h; foliar application at stage of 2-3 leaves, 50 g ai/a, emulsion, 40th day after spray; read-out: Herbicidal effects Barnyardgrass (Echinochloa crusgalli). The data set is classed as in vivo. The method, then:
as §2

Data set [15] relates to Cotton (Gossypium indicum). The experiment in a line: Upland foliar application test, crop injury cotton. The data set is classed as in vivo. Conditions: foliar application at stage of 2-3 leaves, 50 g ai/a, emulsion, 40th day after spray. The method, then:
as §1, §2

The test system of data set [16] is ALS (acetolactate syntase) from pea seedlings. The experiment in a line: ALS (acetolactate syntase) inhibition test, pea enzyme. The data set is classed as biochemical. To be noted: 10,000 ppm (0.5 μg/0.5 ml) of compound; 1 hour at 30° C.; absorbance at 525 nm. As to the method: as §3, §4, §5, §6
The subject of data set [17] is Barnyardgrass (Echinochloa crusgalli). The experiment in a line: Upland soil application test, barnyardgrass. The data set is classed as in vivo. To be noted: Echinochloa crus-galli, 1200 h; soil application one day after seeding, 50 g ai/a, wettable powder, fresh weight on 50th day after spray; read-out: Herbicidal effects Barnyardgrass (Echinochloa crusgalli). The method, then:
as §1

The subject of data set [18] is Johnsongrass. The experiment in a line: Upland soil application test, johnsongrass. The data set is classed as in vivo. Conditions: Sorghum halepense, 1200 h; soil application one day after seeding, 50 g ai/a, wettable powder, fresh weight on 50th day after spray; read-out: Herbicidal effects Johnsongrass. As to the method:
as §1

The test system of data set [19] is Crabgrass (Digitaria adscendens). The data set is described as follows: Upland foliar application test, large crabgrass. Type of data set: in vivo. Conditions: 960 h, foliar application at stage of 2-3 leaves, 50 g ai/a, emulsion, 40th day after spray, read-out: Herbicidal effects Crabgrass (Digitaria adscendens). As to the method:
as §1, §2

For `COc1cc(OC)nc(Oc2ccccc2C(OC(C)C)OC(C)C)n1` [Compound No. 2], the pest or weed control at 5000 g/ha in data set [1] was 100%; in the data set on Johnsongrass [2] it was 100%; in [4], 100%; in the data set on common lambsquarters [5] it was 80%; in data set [8] it was 80%; in data set [9] it was 85%. The pest or weed control at 5000 g/ha in the data set with common lambsquarters [10] worked out at 85%; in data set [12] it was 80%; in data set [14], 80%; in data set [17], 80%; in the data set with Johnsongrass [18], 100%; in data set [19], 85%. In addition, the “Crop injury Cotton (Gossypium indicum)” value in data set [3] and in data set [15] was 0% throughout. Besides, the “Crop injury Soybean (Glycine max)” value in the data set with Soybean (Glycine max) [6] and in the data set on Soybean (Glycine max) [11] was 0% each time. For the same compound, the “Enzymoreaction inhibition rate (%) Barnyardgrass” value in data set [7] is on record as 100%. In data set [13], the “Herbicidal effect against johnsongrass emerging from rhizome” value (“Herbicidal effect” below) was 95%. Besides, the “Enzymoreaction inhibition rate (%) Pea” value in data set [16] is recorded as 0%.
Regarding `COc1cc(OC)nc(Oc2ccccc2C=O)n1` [Comp. Comp'd B, reference compound], the pest or weed control at 5000 g/ha in data set [1] was 80%; with Johnsongrass [2], 100%; in data set [4] it was 100%; with common lambsquarters [5], 80%; in [8] it was 80%; in data set [9], 100%. Moreover, the pest or weed control at 5000 g/ha turned out to be 85% with common lambsquarters [10]; 100% in data set [12]; 100% in data set [14]; 100% in data set [17]; 100% in the data set on Johnsongrass [18]; 100% in [19]. Besides, the “Crop injury Cotton (Gossypium indicum)” value in data set [3] and in [15] was 100% each time. The “Crop injury Soybean (Glycine max)” value in the data set with Soybean (Glycine max) [6] and in the data set on Soybean (Glycine max) [11] was 100% each time. For the same compound, in [7], the “Enzymoreaction inhibition rate (%) Barnyardgrass” value came out at 98%. Also, the “Herbicidal effect” value in data set [13] turned out to be 35%. Moreover, in data set [16], the “Enzymoreaction inhibition rate (%) Pea” value worked out at 92%.
For `CCCCCOC(OCCCCC)c1ccccc1Oc1nc(OC)cc(OC)n1` [Compound No. 4], the pest or weed control at 5000 g/ha (in data set [1]; in the data set with Johnsongrass [2]; in [4]; in the data set on common lambsquarters [5]; in data set [8]; in data set [9]) was 100% throughout. Besides, the pest or weed control at 5000 g/ha (with common lambsquarters [10]; in [12]; in data set [14]; in data set [17]; in the data set with Johnsongrass [18]; in data set [19]) was 100% each time. Also, the “Crop injury Cotton (Gossypium indicum)” value in data set [3] and in data set [15] was 0% in each case. Further, the “Crop injury Soybean (Glycine max)” value in the data set on Soybean (Glycine max) [6] and in the data set on Soybean (Glycine max) [11] was 0% throughout. Besides, the “Enzymoreaction inhibition rate (%) Barnyardgrass” value in [7] was found to be 100%. Moreover, in data set [13], the “Herbicidal effect” value was 100%. Also, the “Enzymoreaction inhibition rate (%) Pea” value in data set [16] is recorded as 0%.
`CCCCCCOC(OCCCCCC)c1ccccc1Oc1nc(OC)cc(OC)n1` [Compound No. 5, 2-(4,6-dimethoxypyrimidin-2-yloxy)benzaldehyde di-n-hexylacetal]: the pest or weed control at 5000 g/ha (in [1]; in the data set with Johnsongrass [2]; in data set [4]; with common lambsquarters [5]; in data set [8]; in [9]) was 100% throughout. The pest or weed control at 5000 g/ha (in the data set with common lambsquarters [10]; in data set [12]; in data set [14]; in data set [17]; with Johnsongrass [18]; in [19]) was 100% in each case. The “Crop injury Cotton (Gossypium indicum)” value in data set [3] and in data set [15] was 0% each time. Further, the “Crop injury Soybean (Glycine max)” value in the data set on Soybean (Glycine max) [6] and in the data set with Soybean (Glycine max) [11] was 0% each time. Also, in data set [7], the “Enzymoreaction inhibition rate (%) Barnyardgrass” value turned out to be 100%. Moreover, the “Herbicidal effect” value in data set [13] amounted to 100%. Besides, the “Enzymoreaction inhibition rate (%) Pea” value in data set [16] worked out at 0%.

These data come from patent US5178662A, “Benzaldehyde acetal compounds, preparation process thereof, and herbicidal compositions containing the same as active ingredients” (Mitsui Toatsu Chemicals, Inc., priority 1990, dated 1993).
